Here are results for seven molecules from paper PMC9820166, “Salicylate Sodium Suppresses Monocyte Chemoattractant Protein-1 Production by Directly Inhibiting Phosphodiesterase 3B in TNF-α-Stimulated Adipocytes” (International Journal of Molecular Sciences, 2022).

Assay [1] relates to MCP-1 production in TNF-α-stimulated 3T3-L1 pre-adipocytes. Description: Supernatant MCP-1 (ELISA) in TNF-α-stimulated 3T3-L1 pre-adipocytes. In kind it is cell-based, mouse. On the procedure:
(§1) The adipocytes were pretreated with SAS at different concentrations (0–5 mM) for 1 h and then stimulated with mouse TNF-α (40 ng/mL) at 37 °C for 24 h. The MCP-1 level in supernatant (for 3T3-L1 adipocytes) or subnatant (for primary adipocytes) was determined by ELISA according to the manufacturer’s instruction. The concentration of MCP-1 was calculated from the standard curve.
On the technique in general: An ELISA detects its analyte on a solid surface through an enzyme-linked reagent.

The target in assay [2] is T1, recombinant human PDE3B (Homo sapiens, UniProt Q13370).
T1 construct: purchased SignalChem Lifesciences Corporation
T1 sequence (Q13370 whole entry): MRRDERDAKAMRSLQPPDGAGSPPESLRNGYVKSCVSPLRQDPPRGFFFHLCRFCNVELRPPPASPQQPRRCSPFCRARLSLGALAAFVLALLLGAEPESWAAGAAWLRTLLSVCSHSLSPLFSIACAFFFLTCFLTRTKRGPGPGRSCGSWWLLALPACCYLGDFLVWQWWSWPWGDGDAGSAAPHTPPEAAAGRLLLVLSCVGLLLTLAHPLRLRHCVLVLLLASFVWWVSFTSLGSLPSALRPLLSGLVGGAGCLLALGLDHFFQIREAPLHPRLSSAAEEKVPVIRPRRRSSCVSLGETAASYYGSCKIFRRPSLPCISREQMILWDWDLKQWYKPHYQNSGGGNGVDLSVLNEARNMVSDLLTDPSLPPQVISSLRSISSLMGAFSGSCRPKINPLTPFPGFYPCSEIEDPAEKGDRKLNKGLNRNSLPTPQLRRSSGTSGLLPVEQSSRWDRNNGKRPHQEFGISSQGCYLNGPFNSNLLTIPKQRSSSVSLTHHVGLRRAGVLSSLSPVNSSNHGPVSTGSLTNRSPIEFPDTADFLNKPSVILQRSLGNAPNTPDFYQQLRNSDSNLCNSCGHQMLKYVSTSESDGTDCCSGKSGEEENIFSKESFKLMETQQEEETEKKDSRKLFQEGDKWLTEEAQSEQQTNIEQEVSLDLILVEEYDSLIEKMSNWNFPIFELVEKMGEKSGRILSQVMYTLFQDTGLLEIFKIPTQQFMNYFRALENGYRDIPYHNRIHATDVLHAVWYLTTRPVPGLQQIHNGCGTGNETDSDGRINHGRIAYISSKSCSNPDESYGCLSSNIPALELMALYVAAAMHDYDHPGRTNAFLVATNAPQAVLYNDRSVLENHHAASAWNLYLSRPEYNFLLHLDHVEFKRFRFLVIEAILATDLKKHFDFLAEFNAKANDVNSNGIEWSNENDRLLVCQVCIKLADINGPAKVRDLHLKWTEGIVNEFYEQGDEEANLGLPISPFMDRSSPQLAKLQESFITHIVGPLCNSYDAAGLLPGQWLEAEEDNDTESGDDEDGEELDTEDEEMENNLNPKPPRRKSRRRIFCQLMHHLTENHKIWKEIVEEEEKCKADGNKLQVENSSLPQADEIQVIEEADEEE
As to the kind of experiment: PDE3B activity inhibition (PDE-Glo PDE assay kit). In kind it is biochemical. The text has this:
(§2) (Fremont, CA, USA). […] All other reagents were of analytical grade.

For assay [3], the target named is T2, human PDE3A (Homo sapiens, UniProt Q14432).
T2 construct: purchased Sino Biological Inc
T2 sequence (Q14432 whole entry): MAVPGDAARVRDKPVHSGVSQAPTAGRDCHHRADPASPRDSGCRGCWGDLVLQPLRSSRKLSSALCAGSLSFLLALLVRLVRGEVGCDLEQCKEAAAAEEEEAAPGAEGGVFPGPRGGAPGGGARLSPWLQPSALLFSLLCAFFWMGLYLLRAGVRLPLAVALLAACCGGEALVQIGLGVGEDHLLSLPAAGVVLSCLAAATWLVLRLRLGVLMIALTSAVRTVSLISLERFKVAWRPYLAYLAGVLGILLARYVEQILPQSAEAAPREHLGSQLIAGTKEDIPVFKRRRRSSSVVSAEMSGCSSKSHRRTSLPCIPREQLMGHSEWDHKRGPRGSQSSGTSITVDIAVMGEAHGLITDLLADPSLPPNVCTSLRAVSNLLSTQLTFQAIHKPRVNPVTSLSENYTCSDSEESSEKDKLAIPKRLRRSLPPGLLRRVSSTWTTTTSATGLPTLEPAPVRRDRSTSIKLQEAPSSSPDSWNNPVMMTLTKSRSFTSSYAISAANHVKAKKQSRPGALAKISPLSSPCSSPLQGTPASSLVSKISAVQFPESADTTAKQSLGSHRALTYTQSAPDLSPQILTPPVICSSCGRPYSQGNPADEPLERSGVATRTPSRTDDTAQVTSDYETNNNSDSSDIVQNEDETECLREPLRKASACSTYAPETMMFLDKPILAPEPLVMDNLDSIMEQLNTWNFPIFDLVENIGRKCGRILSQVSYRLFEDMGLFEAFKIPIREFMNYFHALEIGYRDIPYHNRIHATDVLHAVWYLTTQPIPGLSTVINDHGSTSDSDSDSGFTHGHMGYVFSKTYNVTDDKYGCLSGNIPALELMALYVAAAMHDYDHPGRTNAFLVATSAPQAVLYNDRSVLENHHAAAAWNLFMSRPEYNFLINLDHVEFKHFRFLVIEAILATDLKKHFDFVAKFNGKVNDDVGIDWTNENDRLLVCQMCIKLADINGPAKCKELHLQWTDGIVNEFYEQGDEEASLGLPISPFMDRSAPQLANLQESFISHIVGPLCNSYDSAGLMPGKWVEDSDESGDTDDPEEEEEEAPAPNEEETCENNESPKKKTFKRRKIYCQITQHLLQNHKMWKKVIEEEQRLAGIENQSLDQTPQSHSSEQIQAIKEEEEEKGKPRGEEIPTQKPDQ
Description: PDE3A activity inhibition. In kind it is biochemical.
Text: as §2

The test system of assay [4] is MCP-1 production in TNF-α-stimulated mouse primary adipocytes. Description: Subnatant MCP-1 (ELISA) in TNF-α-stimulated mouse primary adipocytes. In kind it is cell-based. As to conditions: SAS 0–5 mM pretreatment 1 h, TNF-α 40 ng/mL 24 h. The protocol: The mouse primary adipocytes were isolated from normal lean male C57BL/6N mice, as described previously, with modification. In brief, the mice were anesthetized by an intraperitoneal injection of 2,2,2-tribromoethanol (200 mg/kg) and sacrificed via a dislocated neck. The epididymal fat pads were removed, minced and digested by collagenase I (2 mg/mL in DMEM supplemented with 20 mg/mL BSA) at 37 °C for 1 h. The digested tissue was filtered, and the filtrate was centrifuged at 200× g for 5 min. Remove and discard the underlying pellet (containing pre-adipocytes, fibroblasts, and erythrocytes) and media. Re-suspend the remaining fat layer in 10 mL DMEM and centrifuge at 200× g for 5 min. Repeat this step two additional times. The floating top layer containing primary differentiated mature adipocytes was collected and cultured in DMEM supplemented with 10% fetal bovine serum (FBS).
as §1

Assay [5] has as its system MCP-1 production in TNF-α-stimulated 3T3-L1 mature adipocytes. Description: Supernatant MCP-1 (ELISA) in TNF-α-stimulated 3T3-L1 mature adipocytes. In kind it is cell-based, mouse. As to conditions: SAS 0–5 mM pretreatment 1 h, TNF-α 40 ng/mL 24 h. On the procedure: The 3T3-L1 pre-adipocytes were cultured and differentiated into mature adipocytes, as previously described, with slight modification. The cells were maintained in M1 medium (DMEM supplemented with 10% FBS, 1 mM sodium pyruvate, 4 mM glutamine and 1% penicillin-streptomycin solution) to reach confluence. Approximately 2 days later (termed day 0), the medium was replaced with M2 medium (M1 medium supplemented with 1.5 μg/mL insulin, 1 μM dexamethasone, 0.5 mM IBMX and 2 μM rosiglitazone). Two days later, the medium was then changed to M3 medium (M1 medium supplemented with 1.5 μg/mL insulin). Two days later, the medium was replaced with M2 for another 2 days. From day 6, the cells were maintained in M3 medium with a medium change every day. About 8–10 days later, a microscope could observe a lot of lipid droplets and the mature adipocytes were obtained.
as §1

Assay [6] has as its system MCP-1 mRNA. As to the kind of experiment: MCP-1 mRNA level by RT-qPCR in TNF-α-stimulated 3T3-L1 pre-adipocytes. In kind it is cell-based, mouse. To be noted: SAS 0–5 mM pretreatment 1 h, TNF-α 40 ng/mL 4 h. On the procedure: The adipocytes were pretreated with SAS at different concentrations (0–5 mM) for 1 h and then stimulated with mouse TNF-α (40 ng/mL) at 37 °C for 4 h. The total mRNA was isolated from 3T3-L1 pre-adipocytes by Trizol reagent according to the manufacturer’s instruction. Reverse transcription reactions were conducted by using M-MuLV first strand cDNA synthesis kit. The RT-qPCR analyses were performed on a BIOER Fluorescent Quantitative Detection System (Bioer Technology, Hangzhou, China). The procedure condition was as follows: 95 °C for 30 s, 95 °C for 5 s with 40 cycles, and 62 °C for 30 s. The comparative Ct method (2^−ΔΔCt) was used to analyze the relative intensities. The primer sequences for MCP-1 were as follows: 5′-[…]-3′ (forward) and 5′-[…]-3′ (reverse). The primer sequences for β-actin were as follows: 5′-[…]-3′ (forward) and 5′-[…]-3′ (reverse).
On the technique in general: Quantitative PCR measures a nucleic acid by following its amplification.

Assay [7] concerns MCP-1 mRNA stability. Description: MCP-1 mRNA stability assay (actinomycin D). In kind it is cell-based, mouse. As to conditions: SAS 5 mM, TNF-α 40 ng/mL 2 h then actinomycin D 5 ug/mL. The protocol:
The mRNA stability assay was performed as described previously with modification. The 3T3-L1 pre-adipocytes were stimulated with TNF-α (40 ng/mL) for 2 h, and then treated with actinomycin D (5 ug/mL). SAS (5 mM) was added at different time points (0, 0.5, 2, 4 h). The total RNA were harvested, and the MCP-1 mRNA levels were measured by RT-qPCR analysis.

Assay [8] relates to p-ERK. As to the kind of experiment: Western blot of p-ERK in TNF-α-stimulated 3T3-L1 pre-adipocytes. The assay is classed as cell-based, mouse. To be noted: TNF-α 40 ng/mL. On the procedure: (§3) The 3T3-L1 pre-adipocytes ([…] per well in 6-well plates) were incubated with SAS for 1 h and then stimulated with mouse TNF-α (40 ng/mL) at 37 °C for indicated time. The total protein was extracted with the mammalian protein extraction kit. For western blot assay, equal amounts of protein samples (30 µg/lane) were separated by 10% sodium dodecyl sulphate-polyacrylamide gel electrophoresis (SDS-PAGE) and then transferred to PVDF membranes. Subsequently, the membranes were blocked with 5% non-fat milk powder in TBST (0.9 mM Tris, 9 mM Tris-HCl, 150 mM NaCl, 0.05% Tween-20) for 2 h at room temperature, and then incubated with various primary antibodies overnight at 4 °C. After being washed by TBST, the membranes were incubated with the corresponding secondary antibodies for 1 h at room temperature. After successive washes, the protein bands were detected using ECL luminescence reagent and photographed by the ChemiDoc XRS+ imaging system (Bio-Rad Technology, Hercules, California, America) or ChemiScope 6000 Exp (Clinx Science Instruments Co., Shanghai, China).
In general terms: In western blotting, separated proteins are transferred to a membrane and probed.

Assay [9] has as its system p-p38. Description: Western blot of p-p38 in TNF-α-stimulated 3T3-L1 pre-adipocytes. The assay is classed as cell-based, mouse. As to conditions: TNF-α 40 ng/mL. The protocol: as §3
The test system of assay [10] is MKP-1. As to the kind of experiment: Western blot of MKP-1 expression in TNF-α-stimulated 3T3-L1 pre-adipocytes. The assay is classed as cell-based, mouse. To be noted: 2 h after TNF-α stimulation. On the procedure:
as §3

Assay [11] has as its system intracellular cAMP. Description: Intracellular cAMP level (ELISA) in TNF-α-stimulated 3T3-L1 pre-adipocytes. The assay is classed as cell-based, mouse. To be noted: SAS pretreatment 1 h, TNF-α 40 ng/mL 1 h. On the procedure: To determine the time-course change of the TNF-α-induced intracellular cAMP, the 3T3-L1 pre-adipocytes were pretreated with or without SAS (5 mM) for 1 h and then exposed to TNF-α (40 ng/mL) for different time. The cells were lysed, and the changes of intracellular cAMP within 4 h were measured by using a commercial cAMP ELISA kit. To determine the concentration-effect of SAS on intracellular cAMP, 3T3-L1 pre-adipocytes were pretreated with SAS for 1 h at the indicated concentrations and then exposed to TNF-α (40 ng/mL) for further 1 h. The cells were lysed, and the intracellular cAMP level was measured by using a commercial cAMP ELISA kit. The protein concentration of each sample was determined using BCA assay, and the cAMP level of each sample was calculated according to the below formula:cAMP level (pmol/mg protein) = cAMP concentration (pmol/mL)/protein concentration (mg/mL)

Assay [12] deals with PKA. As to the kind of experiment: Intracellular PKA activity (PepTag assay) in TNF-α-stimulated 3T3-L1 pre-adipocytes. The assay is classed as cell-based, mouse. To be noted: SAS pretreatment 1 h, TNF-α 40 ng/mL 1 h. The protocol:
The 3T3-L1 pre-adipocytes were pretreated with SAS for 1 h and then stimulated with TNF-α (40 ng/mL) for further 1 h. The cells were lysed by cold PKA extraction buffer [25 mM Tris-HCl (pH 7.4), 0.5 mM EDTA, 0.5 mM EGTA, 10 mM β-mercaptoethanol, 1 μg/mL leupetin, 1 μg/mL aprotinin and 0.5 mM PMSF] and centrifuged (5000× g) at 4 °C for 10 min. The supernatant was used immediately for PKA activity determination by using a PepTag assay for non-radioactive detection of PKA.

Assay [13] relates to high-fat diet obese C57BL/6N mice. As to the kind of experiment: Recruitment of labeled circulating monocytes into adipose tissue of obese mice. The assay is classed as in vivo, mouse. As to conditions: 45 mg/kg/day subcutaneous for 4 days. The protocol:
page 7: Figure S7. SAS impedes the recruitment of circulating monocytes into adipose tissue in vivo (n = 4). (A) The fluorescence intensity of monocytes in adipose tissue. Male C57BL/6N mice (18 g - 20 g) were fed with high-fat diet (HFD) for 18 weeks. The obtained obese mice (36 g - 40 g) with enough epididymal adipose tissues were subcutaneously injected with SAS (45 mg/kg/day) for 4 days. Circulating blood monocytes were labeled by intravenous injection of Fluoresbrite YG Carboxylate Microspheres. Three days later, the mice were euthanatized and adipose tissues around epididymis were collected, 1.5 g of adipose tissue was digested by collagenase I. The fluorescence value of digestive juice was read at λex 441 nm and λem 486 nm. **P < 0.01 vs. HFD alone. (B) The photograph of labeled monocytes in adipose tissues. The sectioned adipose tissue (about 0.5 g) for photograph by a laser confocal microscopy using a 20 × objective. Fluorescence-labeled monocytes were shown in green. SAS, salicylate sodium. (1 picture or pasted object on this page, not shown here)

The target of assay [14] is human PDE4B (Homo sapiens, UniProt Q07343). To be noted: read-out: IC50 PDE4B activity.
Chain of human PDE4B (Q07343 whole entry): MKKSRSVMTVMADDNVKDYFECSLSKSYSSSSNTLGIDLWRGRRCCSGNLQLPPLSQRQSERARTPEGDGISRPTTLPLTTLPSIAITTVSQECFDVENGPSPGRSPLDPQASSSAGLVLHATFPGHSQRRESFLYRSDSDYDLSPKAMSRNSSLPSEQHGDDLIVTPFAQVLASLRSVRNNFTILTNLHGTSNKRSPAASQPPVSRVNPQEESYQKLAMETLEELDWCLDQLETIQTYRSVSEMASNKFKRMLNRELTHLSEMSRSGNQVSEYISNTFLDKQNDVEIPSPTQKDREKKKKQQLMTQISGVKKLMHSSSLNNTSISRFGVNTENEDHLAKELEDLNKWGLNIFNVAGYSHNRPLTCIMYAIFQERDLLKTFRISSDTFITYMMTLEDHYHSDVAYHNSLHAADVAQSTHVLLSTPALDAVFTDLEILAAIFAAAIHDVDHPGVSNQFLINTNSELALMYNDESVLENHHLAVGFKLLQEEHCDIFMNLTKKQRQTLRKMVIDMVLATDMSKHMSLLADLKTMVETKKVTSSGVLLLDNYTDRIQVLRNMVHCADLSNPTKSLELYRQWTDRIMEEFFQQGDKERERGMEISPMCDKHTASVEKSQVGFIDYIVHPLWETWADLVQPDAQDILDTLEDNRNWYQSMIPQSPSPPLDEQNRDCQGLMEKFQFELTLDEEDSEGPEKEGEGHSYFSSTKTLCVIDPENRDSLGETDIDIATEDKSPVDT
Setting [15] is: 200 μM pretreatment 1 h, TNF-α 40 ng/mL 24 h.

Consider `NC(=O)c1ncn([C@@H]2O[C@H](CO)[C@@H](O)[C@H]2O)c1N` [AICAR], for which the “Effect on MCP-1 production” value in assay [1] (100 μM pretreatment 1 h, TNF-α 40 ng/mL 24 h) is recorded as “did not decrease the MCP-1 production”.
Turning to `c1cc(-c2cnn3cc(-c4ccc(OCCN5CCCCC5)cc4)cnc23)ccn1` [Compound C], the “Effect of AMPK inhibitor on the MCP-1-lowering effect of SAS” value in [1] (co-treatment with SAS, TNF-α-stimulated) is “could not antagonize the effect of SAS”.
Turning to `O=S(=O)(NCCNC/C=C/c1ccc(Br)cc1)c1cccc2cnccc12` [H89], the “Effect of PKA antagonist on the MCP-1-lowering effect of SAS” value in assay [1] (100 nM, with SAS, TNF-α-stimulated) is given as “abolished the effect of SAS on MCP-1”.
In the case of `Nc1ncnc2c1ncn2[C@@H]1O[C@@H]2CO[P@@](O)(=S)O[C@H]2[C@H]1O` [RP-cAMPS], the “Effect of cAMP antagonist on the MCP-1-lowering effect of SAS” value in [1] (100 μM, with SAS, TNF-α-stimulated) is “abolished the effect of SAS on MCP-1”.
In the case of `O=C(O)c1ccccc1O` [SAS, salicylate sodium], the results for the IC50 in [2], in assay [3] and in assay [14] were 13.8 mM, 6 mM and 0.81 mM, respectively. The “Effect on MCP-1 production (supernatant)” value in assay [1] (3T3-L1 pre-adipocytes, SAS 0–5 mM pretreatment 1 h, TNF-α 40 ng/mL 24 h) is “significantly decreased MCP-1 production”; in [5], “significantly decreased MCP-1 production”. The “Effect of SAS on MCP-1 in IKKβ-deficient cells” value in assay [1] (IKKβ siRNA knockdown 3T3-L1 pre-adipocytes) was “did not impact the effect of SAS on MCP-1”. The “Effect of SAS on MCP-1 in PDE3B-deficient cells” value in [1] (PDE3B siRNA knockdown 3T3-L1 pre-adipocytes vs scrambled siRNA) is listed as “almost disappeared”. In addition, the “Concentration that impedes MCP-1 expression in adipocytes” value in [1] (in vitro, adipocytes (Figure 2)) fell in the range of 1.25 to 5 mM. In assay [4], the “Effect on MCP-1 production (subnatant)” value is listed as “significantly decreased MCP-1 production”. Also, the “Effect on MCP-1 mRNA level” value in assay [6] is recorded as “concentration-dependently decreased the MCP-1 mRNA level”. Besides, the “Effect on MCP-1 mRNA stability” value in [7] is “did not affect the mRNA stability of MCP-1”. In addition, the “Effect on p-ERK level” value in [8] was “concentration-dependently decrease the levels of p-ERK and p-p38”. Also, in [9], the “Effect on p-p38 level” value was “concentration-dependently decrease the levels of p-ERK and p-p38”. In addition, the “Effect on MKP-1 expression” value in assay [10] was “maintained the expression of MKP-1 at 2 h”. In addition, the “Effect on TNF-α-caused reduction of intracellular cAMP” value in assay [11] is “could prevent this decrease in a concentration-dependent manner”. Also, in assay [12], the “Effect on intracellular PKA activity” value is listed as “elevated the intracellular PKA activity”. Moreover, the “Recruitment of circulating monocytes into adipose tissue” value in assay [13] is “markedly prevented the recruitment of circulating monocytes into the adipose tissue”.
Regarding `CN(C(=O)CCCOc1ccc2[nH]c(=O)ccc2c1)C1CCCCC1` [cilostamide], in assay [1] (setting [15]), the “Effect on MCP-1 production” value is listed as “suppressed the MCP-1 production”.
Same read-out and setting: with `Cc1[nH]c(=O)c(C#N)cc1-c1ccncc1` [milrinone] the entry was “suppressed the MCP-1 production”.
